Data: ChEMBL document CHEMBL4507325 (2021)

Columns and labels:
Settings in all cases: Compound concentration 10.0 uM
[1] = target: 5-hydroxytryptamine receptor 3A (Homo sapiens) (UniProt P46098)
[2] = target: Histamine H2 receptor (Homo sapiens) (UniProt P25021)
[3] = target: Alpha-2B adrenergic receptor (Homo sapiens) (UniProt P18089)
[4] = target: Sigma non-opioid intracellular receptor 1 (Homo sapiens) (UniProt Q99720)
[5] = target: Mu-type opioid receptor (Homo sapiens) (UniProt P35372)
[6] = target: Glucocorticoid receptor (Homo sapiens) (UniProt P04150)
[7] = target: Alpha-2C adrenergic receptor (Homo sapiens) (UniProt P18825)
[8] = target: Androgen receptor (Homo sapiens) (UniProt P10275)
[9] = target: Growth hormone secretagogue receptor type 1 (Homo sapiens) (UniProt Q92847)

Measured: inhibition

Chain of Histamine H2 receptor (Homo sapiens) (P25021 whole entry): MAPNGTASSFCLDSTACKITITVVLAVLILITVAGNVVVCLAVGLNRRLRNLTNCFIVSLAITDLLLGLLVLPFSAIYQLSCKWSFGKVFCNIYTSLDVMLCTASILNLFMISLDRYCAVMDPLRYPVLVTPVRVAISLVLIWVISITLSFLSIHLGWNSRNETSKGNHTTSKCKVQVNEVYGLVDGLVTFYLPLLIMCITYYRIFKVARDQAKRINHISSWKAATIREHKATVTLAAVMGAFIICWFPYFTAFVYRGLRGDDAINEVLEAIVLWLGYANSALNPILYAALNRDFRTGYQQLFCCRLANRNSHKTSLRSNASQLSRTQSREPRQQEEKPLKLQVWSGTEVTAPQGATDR
Chain of Sigma non-opioid intracellular receptor 1 (Homo sapiens) (Q99720 whole entry): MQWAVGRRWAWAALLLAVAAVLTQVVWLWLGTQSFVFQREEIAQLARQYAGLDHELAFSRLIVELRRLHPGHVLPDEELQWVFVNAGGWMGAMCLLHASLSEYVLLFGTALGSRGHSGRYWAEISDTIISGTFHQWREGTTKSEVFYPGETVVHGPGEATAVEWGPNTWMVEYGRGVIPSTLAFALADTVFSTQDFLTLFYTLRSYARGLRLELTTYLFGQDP
Chain of Alpha-2B adrenergic receptor (Homo sapiens) (P18089 whole entry): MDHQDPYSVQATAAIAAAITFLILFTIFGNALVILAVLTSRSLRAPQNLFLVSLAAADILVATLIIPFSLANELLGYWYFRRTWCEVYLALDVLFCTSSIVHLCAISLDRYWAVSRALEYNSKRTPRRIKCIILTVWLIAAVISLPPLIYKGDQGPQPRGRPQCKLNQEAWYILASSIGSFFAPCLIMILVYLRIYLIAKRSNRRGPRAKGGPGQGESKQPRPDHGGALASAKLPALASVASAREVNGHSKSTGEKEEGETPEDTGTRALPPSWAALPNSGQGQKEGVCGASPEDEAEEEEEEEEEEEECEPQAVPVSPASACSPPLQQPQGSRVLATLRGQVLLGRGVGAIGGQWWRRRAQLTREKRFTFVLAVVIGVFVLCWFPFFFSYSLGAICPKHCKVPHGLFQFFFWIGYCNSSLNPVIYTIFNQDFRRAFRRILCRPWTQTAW
Chain of Growth hormone secretagogue receptor type 1 (Homo sapiens) (Q92847 whole entry): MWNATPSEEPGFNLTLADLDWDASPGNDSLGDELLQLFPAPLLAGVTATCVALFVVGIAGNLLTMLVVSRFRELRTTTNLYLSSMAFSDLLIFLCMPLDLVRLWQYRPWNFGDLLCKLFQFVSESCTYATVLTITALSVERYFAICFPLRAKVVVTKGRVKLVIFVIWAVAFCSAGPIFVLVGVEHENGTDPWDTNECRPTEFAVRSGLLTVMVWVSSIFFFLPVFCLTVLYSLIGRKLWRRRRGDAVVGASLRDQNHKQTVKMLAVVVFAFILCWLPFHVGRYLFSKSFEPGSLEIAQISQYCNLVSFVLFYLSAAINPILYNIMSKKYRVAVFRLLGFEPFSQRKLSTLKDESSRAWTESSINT
Chain of Glucocorticoid receptor (Homo sapiens) (P04150 whole entry): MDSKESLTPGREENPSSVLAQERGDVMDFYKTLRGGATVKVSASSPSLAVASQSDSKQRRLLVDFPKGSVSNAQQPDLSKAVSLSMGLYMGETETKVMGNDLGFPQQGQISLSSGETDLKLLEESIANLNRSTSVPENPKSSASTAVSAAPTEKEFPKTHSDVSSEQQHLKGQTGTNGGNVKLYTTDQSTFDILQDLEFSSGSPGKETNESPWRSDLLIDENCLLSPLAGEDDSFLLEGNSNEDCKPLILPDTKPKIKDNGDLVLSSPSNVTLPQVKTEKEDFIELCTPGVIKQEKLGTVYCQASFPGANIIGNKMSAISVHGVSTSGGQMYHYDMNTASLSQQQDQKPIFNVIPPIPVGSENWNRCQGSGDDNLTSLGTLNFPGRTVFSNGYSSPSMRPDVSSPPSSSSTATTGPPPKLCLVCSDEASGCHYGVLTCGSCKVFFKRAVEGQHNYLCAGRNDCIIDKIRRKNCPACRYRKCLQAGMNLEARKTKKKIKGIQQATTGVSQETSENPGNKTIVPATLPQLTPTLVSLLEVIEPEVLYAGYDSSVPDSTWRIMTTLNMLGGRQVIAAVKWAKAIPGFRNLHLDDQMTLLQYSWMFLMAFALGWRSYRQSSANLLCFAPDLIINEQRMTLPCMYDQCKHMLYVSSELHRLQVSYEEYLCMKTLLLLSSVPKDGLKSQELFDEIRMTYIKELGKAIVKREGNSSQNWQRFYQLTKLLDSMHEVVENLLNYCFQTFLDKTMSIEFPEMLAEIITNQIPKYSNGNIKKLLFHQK
Chain of Alpha-2C adrenergic receptor (Homo sapiens) (P18825 whole entry): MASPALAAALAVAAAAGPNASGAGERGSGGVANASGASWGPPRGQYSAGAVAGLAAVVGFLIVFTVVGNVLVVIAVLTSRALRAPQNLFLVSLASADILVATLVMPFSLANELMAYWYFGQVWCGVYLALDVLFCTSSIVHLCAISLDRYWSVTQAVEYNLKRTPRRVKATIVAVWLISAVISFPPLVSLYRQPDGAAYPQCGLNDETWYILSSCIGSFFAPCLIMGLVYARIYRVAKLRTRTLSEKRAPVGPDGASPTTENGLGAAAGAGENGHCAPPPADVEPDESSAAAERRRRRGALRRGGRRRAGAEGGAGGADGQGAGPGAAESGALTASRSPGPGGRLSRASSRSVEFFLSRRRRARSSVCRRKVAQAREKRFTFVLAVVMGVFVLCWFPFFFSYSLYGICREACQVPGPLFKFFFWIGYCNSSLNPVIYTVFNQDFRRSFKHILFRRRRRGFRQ
Chain of Androgen receptor (Homo sapiens) (P10275 whole entry): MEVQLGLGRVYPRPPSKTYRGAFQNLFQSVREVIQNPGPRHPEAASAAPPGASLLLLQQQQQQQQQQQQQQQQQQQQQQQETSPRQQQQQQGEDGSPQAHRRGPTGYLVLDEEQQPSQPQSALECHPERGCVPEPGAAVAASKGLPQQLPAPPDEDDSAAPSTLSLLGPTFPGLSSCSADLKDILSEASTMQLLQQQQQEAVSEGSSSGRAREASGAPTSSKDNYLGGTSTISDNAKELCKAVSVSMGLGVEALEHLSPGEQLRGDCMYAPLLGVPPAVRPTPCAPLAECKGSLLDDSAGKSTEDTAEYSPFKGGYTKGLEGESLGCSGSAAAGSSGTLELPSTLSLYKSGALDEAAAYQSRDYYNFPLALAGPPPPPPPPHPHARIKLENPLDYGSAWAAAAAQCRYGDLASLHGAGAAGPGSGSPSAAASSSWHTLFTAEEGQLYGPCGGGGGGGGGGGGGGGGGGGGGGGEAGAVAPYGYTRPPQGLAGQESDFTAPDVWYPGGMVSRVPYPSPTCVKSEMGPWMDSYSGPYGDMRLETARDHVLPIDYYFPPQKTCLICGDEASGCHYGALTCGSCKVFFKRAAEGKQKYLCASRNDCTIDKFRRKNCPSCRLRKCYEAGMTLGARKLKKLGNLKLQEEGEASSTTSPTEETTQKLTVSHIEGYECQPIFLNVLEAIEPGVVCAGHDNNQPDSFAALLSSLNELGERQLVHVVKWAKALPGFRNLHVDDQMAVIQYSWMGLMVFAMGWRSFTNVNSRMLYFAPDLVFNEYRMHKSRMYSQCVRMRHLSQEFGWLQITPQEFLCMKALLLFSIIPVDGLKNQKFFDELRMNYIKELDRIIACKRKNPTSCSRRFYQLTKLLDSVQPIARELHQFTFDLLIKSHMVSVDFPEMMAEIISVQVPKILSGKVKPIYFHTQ
Chain of 5-hydroxytryptamine receptor 3A (Homo sapiens) (P46098 whole entry): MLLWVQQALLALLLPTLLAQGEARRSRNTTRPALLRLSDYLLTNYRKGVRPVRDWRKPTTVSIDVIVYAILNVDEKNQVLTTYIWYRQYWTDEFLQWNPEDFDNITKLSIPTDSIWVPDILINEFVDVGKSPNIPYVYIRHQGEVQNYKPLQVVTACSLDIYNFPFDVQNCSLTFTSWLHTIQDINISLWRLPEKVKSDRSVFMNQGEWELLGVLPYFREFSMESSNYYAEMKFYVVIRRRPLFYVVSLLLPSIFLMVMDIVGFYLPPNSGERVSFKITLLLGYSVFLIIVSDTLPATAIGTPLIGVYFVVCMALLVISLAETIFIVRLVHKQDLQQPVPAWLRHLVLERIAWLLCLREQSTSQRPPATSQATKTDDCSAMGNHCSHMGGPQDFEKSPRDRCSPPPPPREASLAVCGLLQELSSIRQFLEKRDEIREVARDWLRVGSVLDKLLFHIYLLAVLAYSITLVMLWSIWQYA
Chain of Mu-type opioid receptor (Homo sapiens) (P35372 whole entry): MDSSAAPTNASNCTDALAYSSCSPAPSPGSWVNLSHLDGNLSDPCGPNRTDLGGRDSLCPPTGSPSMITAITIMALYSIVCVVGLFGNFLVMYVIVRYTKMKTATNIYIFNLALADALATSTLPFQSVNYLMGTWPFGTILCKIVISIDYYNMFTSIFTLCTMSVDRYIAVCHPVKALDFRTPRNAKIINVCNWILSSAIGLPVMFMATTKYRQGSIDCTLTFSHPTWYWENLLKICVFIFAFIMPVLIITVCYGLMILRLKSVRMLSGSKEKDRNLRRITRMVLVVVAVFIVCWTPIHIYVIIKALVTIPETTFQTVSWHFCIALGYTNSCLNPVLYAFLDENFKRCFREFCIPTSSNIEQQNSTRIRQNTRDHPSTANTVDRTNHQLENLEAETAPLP

Cc1ccccc1Oc1cc(-n2c(=O)cc(C(F)(F)F)[nH]c2=O)c2ccccc2c1Cl [BAY-069]
inactive: [1] 20.3% | [2] 5.46% | [3] -8.63% | [4] 19% | [5] 0% | [6] 13% | [7] 6% | [8] 9% | [9] 1%
